Experimental data as given in PMC8298522 (Scientific Reports, 2021).

Tested on: insulin-positive and insulin-negative pancreatic tumors
Type: in vivo
Details: [^68Ga]DOTATOC PET/CT, scan 30 min after injection
Description: PET scans were performed after 30 min of injection of the labeled substance via tail vein (10 MBq/mouse) under 2.0% isoflurane anesthesia using a Triumph LabPET12/SPECT4/CT (TriFoil Imaging Inc., Chatsworth, CA, USA)[41].
After completion of the PET/CT procedures, mice were sacrificed by cervical dislocation, followed by immediate resection of the pancreas. Tissues were spread on filter paper and immediately fixed in 10% formalin at 4 °C. For the analysis of pancreatic tumors, serial formalin-fixed paraffin-embedded sections (4-μm thickness) were stained with anti-insulin and anti-glucagon antibody, as previously reported[39]. Briefly, primary rabbit polyclonal antibody was used for insulin detection at an antibody dilution of 1:100 (Cat# sc-9168; Santa Cruz Biotechnology, USA) and a mouse monoclonal antibody glucagon detection at an antibody dilution of 1:100 (Cat# ab10988; Abcam, USA). The secondary antibodies utilized for the assay were Alexa Fluor 488 goat anti-rabbit antibody at 1:200 dilution (Cat# A-11008; Thermo Fisher Scientific, USA) and Alexa Fluor 546 goat anti-mouse antibody at 1:200 dilution (Cat# A-11030; Thermo Fisher Scientific, USA), respectively. The slides were prepared for analyses under a fluorescence microscope (BZ-X700; Keyence, Osaka, Japan).

## C[C@@H](O)[C@@H]1NC(=O)[C@H](CCCCN)NC(=O)[C@@H](Cc2c[nH]c3ccccc23)NC(=O)[C@H](Cc2ccc(O)cc2)NC(=O)[C@@H](NC(=O)[C@@H](Cc2ccccc2)NC(=O)CN2CCN(CC(=O)[O-])CCN(CC(=O)[O-])CCN(CC(=O)[O-])CC2)CSSC[C@@H](C(=O)N[C@H](CO)[C@@H](C)O)NC1=O.[68Ga+3] [[^68Ga]DOTATOC, ^68Ga-labeled 1,4,7,10-tetraazacyclododecane-N,N′,N″,N″-tetraacetic acid-d-Phe^1-Tyr^3-octreotide]
  Specificity for detecting insulin-positive tumors: 0%
